Results taken from ChEMBL document CHEMBL5584255, “Synthesis and antibacterial medicinal evaluation of carbothioamido hydrazonyl thiazolylquinolone with multitargeting antimicrobial potential to combat increasingly global resistance” (Eur J Med Chem, 2024).
Values after ≈ are worked out from the molar mass of the structure shown. Active and inactive are the calls of the source. The rule behind the calls is not given here.

Tests used:
Pseudomonas aeruginosa [1] = experiment: Antibacterial activity against Pseudomonas aeruginosa ATCC 27853 by microbroth dilution method; type: functional
Aspergillus fumigatus = experiment: Antifungal activity against Aspergillus fumigatus; type: functional
DNA [2] = experiment: Displacement of neutral red from drug-resistant Staphylococcus aureus DNA assessed as DNA intercalation by UV-visible absorption spectra analysis; type: nucleic-acid assay; conditions: dose <= 1.5 10^-5mol/L
DNA [3] = experiment: Binding affinity to drug-resistant Staphylococcus aureus DNA assessed as hypochromic effect at 7.86 x 10^-5 mol/L by UV-visible absorption spectra analysis; type: nucleic-acid assay; conditions: dose 7.86 10^-5mol/L
[4] = Hemolytic activity in human RBC assessed as hemolysis ratio at 0.0047 mM measured after 1 hr relative to control; type: toxicity, cell-based, Erythrocyte; conditions: red blood cells (erythrocytes)
Pseudomonas aeruginosa [5] = experiment: Antibacterial activity against Pseudomonas aeruginosa by microbroth dilution method; type: functional
[6] = Cytotoxicity against human A549 cells assessed as cell viability up to 0.3019 mM measured after 72 hrs by MTT assay relative to control; type: toxicity, cell-based; conditions: read-out: Activity
Staphylococcus aureus [7] = experiment: Antibacterial activity against Staphylococcus aureus ATCC 25923 by microbroth dilution method; type: functional
[8] = Toxicity in mouse assessed as change in body weight at 5 to 10 mg/kg administered for 10 days; type: organism-based; conditions: in vivo, 240 h, dose 5-10 mg/kg, time 10 day
Staphylococcus aureus [9] = experiment: Antibacterial activity against drug-resistant Staphylococcus aureus by microbroth dilution method; type: functional
[10] = Toxicity in mouse assessed as change in liver morphology at 5 to 10 mg/kg administered for 10 days by hematoxylin and eosin staining based assay; type: organism-based; conditions: in vivo, 240 h, dose 5-10 mg/kg, time 10 day
[11] = Cytotoxicity against mouse L929 cells assessed as cell viability up to 0.3019 mM measured after 72 hrs by MTT assay relative to control; type: toxicity, cell-based; conditions: read-out: Activity
Staphylococcus aureus [12] = experiment: Induction of resistance development in Staphylococcus aureus measured after 16 passages; type: functional
[13] = Toxicity in mouse assessed as change in kidney morphology at 5 to 10 mg/kg administered for 10 days by hematoxylin and eosin staining based assay; type: organism-based; conditions: in vivo, 240 h, dose 5-10 mg/kg, time 10 day
Staphylococcus aureus [14] = experiment: Antibacterial activity against Staphylococcus aureus ATCC 29213 by microbroth dilution method; type: functional
Topoisomerase IV = Topoisomerase IV (Staphylococcus aureus, UniProt P0C1S7+P0C1U9); experiment: Inhibition of drug-resistant Staphylococcus aureus topoisomerase 4; type: protein-complex assay
Candida tropicalis = experiment: Antifungal activity against drug-resistant Candida tropicalis; type: functional
DNA [15] = experiment: Displacement of neutral red from drug-resistant Staphylococcus aureus DNA assessed as DNA intercalation by measuring blue shift up to 1.5 x 10^-5 mol/L by UV-visible absorption spectra analysis (reference value: 460 nm); type: nucleic-acid assay; conditions: dose <= 1.5 10^-5mol/L
Klebsiella pneumoniae = experiment: Antibacterial activity against Klebsiella pneumoniae by microbroth dilution method; type: functional
Acinetobacter baumannii = experiment: Antibacterial activity against Acinetobacter baumannii by microbroth dilution method; type: functional
Escherichia coli [16] = experiment: Antibacterial activity against drug-resistant Escherichia coli by microbroth dilution method; type: functional
Staphylococcus aureus [17] = experiment: Antibacterial activity against methicillin-resistant Staphylococcus aureus N315 by microbroth dilution method; type: functional
Enterococcus faecalis = experiment: Antibacterial activity against drug-resistant Enterococcus faecalis by microbroth dilution method; type: functional
[18] = Hemolytic activity in human RBC assessed as hemolysis ratio at 0.0094 mM measured after 1 hr relative to control; type: toxicity, cell-based, Erythrocyte; conditions: red blood cells (erythrocytes)
Escherichia coli [19] = experiment: Antibacterial activity against Escherichia coli ATCC 25922 by microbroth dilution method; type: functional
Candida parapsilosis = experiment: Antifungal activity against Candida parapsilosis ATCC 22019; type: functional; conditions: Lodderomyces parapsilosis
Candida albicans [20] = experiment: Antifungal activity against Candida albicans ATCC 90023; type: functional
Staphylococcus aureus [21] = experiment: Potency index, ratio of norfloxacin MIC to test compound MIC for drug-resistant Staphylococcus aureus by microbroth dilution method; type: functional
[22] = Hemolytic activity in human RBC assessed as hemolysis ratio at 0.0024 mM measured after 1 hr relative to control; type: toxicity, cell-based, Erythrocyte; conditions: red blood cells (erythrocytes)
Cell membrane = experiment: Induction of membrane permeabilization in drug-resistant Staphylococcus aureus at 0.0283 mM measured within 60 mins by propidium iodide staining based fluorescence assay
Candida albicans [23] = experiment: Antifungal activity against drug-resistant Candida albicans; type: functional
[24] = Toxicity in mouse assessed as change in spleen morphology at 5 to 10 mg/kg administered for 10 days by hematoxylin and eosin staining based assay; type: organism-based; conditions: in vivo, 240 h, dose 5-10 mg/kg, time 10 day
DNA [25] = experiment: Binding affinity to drug-resistant Staphylococcus aureus DNA by UV-visible absorption spectra analysis; type: nucleic-acid assay
[26] = Hemolytic activity in human RBC assessed as hemolysis ratio at 0.0189 mM measured after 1 hr relative to control; type: toxicity, cell-based, Erythrocyte; conditions: red blood cells (erythrocytes)

Sequence of Topoisomerase IV (P0C1U9 whole entry): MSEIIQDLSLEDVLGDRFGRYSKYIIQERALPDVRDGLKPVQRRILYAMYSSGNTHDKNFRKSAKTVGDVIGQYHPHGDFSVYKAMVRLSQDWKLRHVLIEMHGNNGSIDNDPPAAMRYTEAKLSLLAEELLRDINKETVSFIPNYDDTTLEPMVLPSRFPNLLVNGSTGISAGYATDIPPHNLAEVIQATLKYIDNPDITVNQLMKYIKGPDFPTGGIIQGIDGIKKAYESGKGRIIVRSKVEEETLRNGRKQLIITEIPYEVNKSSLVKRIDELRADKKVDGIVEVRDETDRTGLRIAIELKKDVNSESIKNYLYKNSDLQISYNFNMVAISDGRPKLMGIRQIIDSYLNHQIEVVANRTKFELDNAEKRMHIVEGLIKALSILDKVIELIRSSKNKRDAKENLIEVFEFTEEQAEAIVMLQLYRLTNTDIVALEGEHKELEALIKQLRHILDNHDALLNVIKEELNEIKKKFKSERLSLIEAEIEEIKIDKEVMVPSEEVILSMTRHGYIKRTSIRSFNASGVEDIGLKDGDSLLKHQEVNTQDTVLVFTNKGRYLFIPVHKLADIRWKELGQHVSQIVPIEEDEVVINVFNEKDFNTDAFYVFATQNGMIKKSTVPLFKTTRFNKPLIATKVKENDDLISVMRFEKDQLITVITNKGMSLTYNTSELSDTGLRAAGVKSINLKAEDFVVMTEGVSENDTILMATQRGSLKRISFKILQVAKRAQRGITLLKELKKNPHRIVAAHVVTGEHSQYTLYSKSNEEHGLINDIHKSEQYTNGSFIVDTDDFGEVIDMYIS
Sequence of Topoisomerase IV (P0C1S7 whole entry): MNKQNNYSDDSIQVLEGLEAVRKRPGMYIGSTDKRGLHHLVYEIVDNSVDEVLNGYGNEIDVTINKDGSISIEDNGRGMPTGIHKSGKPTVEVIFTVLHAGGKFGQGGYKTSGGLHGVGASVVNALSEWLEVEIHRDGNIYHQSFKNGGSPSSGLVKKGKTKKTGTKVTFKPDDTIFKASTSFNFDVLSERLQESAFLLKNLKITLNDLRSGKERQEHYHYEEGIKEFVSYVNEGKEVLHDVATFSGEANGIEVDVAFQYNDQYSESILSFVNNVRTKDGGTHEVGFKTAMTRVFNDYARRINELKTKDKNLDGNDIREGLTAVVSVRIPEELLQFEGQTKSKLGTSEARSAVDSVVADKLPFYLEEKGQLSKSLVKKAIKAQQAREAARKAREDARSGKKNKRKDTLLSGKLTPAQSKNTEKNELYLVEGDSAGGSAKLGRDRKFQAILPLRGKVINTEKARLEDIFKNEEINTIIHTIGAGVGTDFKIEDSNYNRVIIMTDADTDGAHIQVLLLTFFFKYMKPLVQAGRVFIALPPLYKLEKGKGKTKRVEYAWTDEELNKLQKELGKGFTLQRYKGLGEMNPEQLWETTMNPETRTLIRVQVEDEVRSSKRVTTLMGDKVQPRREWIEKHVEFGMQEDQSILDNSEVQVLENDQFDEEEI

In the case of `C/C(Cn1cc(-c2csc(N)n2)c(=O)c2cc(F)c(Cl)cc21)=N\NC(N)=S`, the MIC (Pseudomonas aeruginosa [1]) is reported as 19 µM (≈ 8.07 µg/mL), the MIC (Aspergillus fumigatus) is reported as 151 µM (≈ 64.2 µg/mL) and the Activity (DNA [2]) is reported as “Dose-Dependent Effect”. For the same compound, the Activity (DNA [3]) was “Active”, the hemolysis at 1 h, 4.7 µM [4] was 1.07% and the MIC (Pseudomonas aeruginosa [5]) was 76 µM (≈ 32.3 µg/mL). For the same compound, the viability at 72 h, up to 301.9 µM [6] was over 75%, the MIC (Staphylococcus aureus [7]) was 38 µM (≈ 16.1 µg/mL) and the Activity [8] was “Toxic”. The MIC (Staphylococcus aureus [9]) was 5 µM (≈ 2.12 µg/mL), the Activity [10] was “Non-Toxic” and the viability at 72 h, up to 301.9 µM [11] was over 75%. The Activity (Staphylococcus aureus [12]) was “Active”, the Activity [13] was “Non-Toxic” and the MIC (Staphylococcus aureus [14]) was 5 µM (≈ 2.12 µg/mL). The IC50 (Topoisomerase IV) was 10.9 µM, the MIC (Candida tropicalis) was 151 µM (≈ 64.2 µg/mL) and the Activity (DNA [15]) was 420 nm. It also gave an MIC (Klebsiella pneumoniae) of 302 µM (≈ 128 µg/mL), an MIC (Acinetobacter baumannii) of 151 µM (≈ 64.2 µg/mL) and an MIC (Escherichia coli [16]) of 151 µM (≈ 64.2 µg/mL). The MIC (Staphylococcus aureus [17]) was 38 µM (≈ 16.1 µg/mL), the MIC (Enterococcus faecalis) was 302 µM (≈ 128 µg/mL) and the hemolysis at 1 h, 9.4 µM [18] was 1.25%. For the same compound, the MIC (Escherichia coli [19]) was 19 µM (≈ 8.07 µg/mL), the MIC (Candida parapsilosis) was 5 µM (≈ 2.12 µg/mL) and the MIC (Candida albicans [20]) was 19 µM (≈ 8.07 µg/mL). For the same compound, the Ratio (Staphylococcus aureus [21]) was 5, the hemolysis at 1 h, 2.4 µM [22] was 0.472% and the Activity (Cell membrane) was “Active”. For the same compound, the MIC (Candida albicans [23]) was 19 µM (≈ 8.07 µg/mL), the Activity [24] was “Non-Toxic” and the K (DNA [25]) was 6.32 10^4L/mol. The hemolysis at 1 h, 18.9 µM [26] was 2.21%.
